Values of other authors as cited in US20220370466A1, “REGIMENS FOR TREATING HIV INFECTIONS AND AIDS” (ViiV Healthcare Company, priority 2017, published 2022).
pEC50: −log10 of the molar value. Read-outs that look alike come from different tables or passages of the source. Blank lines part the entries; values can stand above or below the compound they belong to.

How the values were obtained:
[1] = system: HIV; details: monocyte-derived macrophages (MDMs)
[2] = system: HIV; details: CD4+ T-cells isolated from thirteen (13) persons
[3] = system: HIV-1; details: lymphoblastoid cell lines, MAGI-CCR5 cell line, peripheral blood mononuclear cells
[4] = biological target: T1, CYP3A4 (Homo sapiens, UniProt P08684)
T1 sequence (P08684 whole entry): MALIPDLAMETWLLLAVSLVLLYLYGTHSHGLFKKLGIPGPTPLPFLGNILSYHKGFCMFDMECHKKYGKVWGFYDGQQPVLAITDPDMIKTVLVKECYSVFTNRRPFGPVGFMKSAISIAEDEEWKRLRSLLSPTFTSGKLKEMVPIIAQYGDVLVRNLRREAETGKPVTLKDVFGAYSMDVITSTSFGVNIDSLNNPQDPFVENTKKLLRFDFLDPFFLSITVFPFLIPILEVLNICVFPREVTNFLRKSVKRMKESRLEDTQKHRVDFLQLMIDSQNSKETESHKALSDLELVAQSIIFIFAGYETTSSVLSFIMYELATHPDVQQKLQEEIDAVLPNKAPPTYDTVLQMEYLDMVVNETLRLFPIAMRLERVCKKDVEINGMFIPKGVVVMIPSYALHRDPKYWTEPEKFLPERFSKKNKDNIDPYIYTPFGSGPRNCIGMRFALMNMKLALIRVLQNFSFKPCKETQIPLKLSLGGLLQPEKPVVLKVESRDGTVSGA

[5] = system: cytochrome P450 (CYP) isozymes
[6] = biological target: T2, UGT1A3 (Homo sapiens, UniProt P35503); details: in vitro
T2 sequence (P35503 29-534): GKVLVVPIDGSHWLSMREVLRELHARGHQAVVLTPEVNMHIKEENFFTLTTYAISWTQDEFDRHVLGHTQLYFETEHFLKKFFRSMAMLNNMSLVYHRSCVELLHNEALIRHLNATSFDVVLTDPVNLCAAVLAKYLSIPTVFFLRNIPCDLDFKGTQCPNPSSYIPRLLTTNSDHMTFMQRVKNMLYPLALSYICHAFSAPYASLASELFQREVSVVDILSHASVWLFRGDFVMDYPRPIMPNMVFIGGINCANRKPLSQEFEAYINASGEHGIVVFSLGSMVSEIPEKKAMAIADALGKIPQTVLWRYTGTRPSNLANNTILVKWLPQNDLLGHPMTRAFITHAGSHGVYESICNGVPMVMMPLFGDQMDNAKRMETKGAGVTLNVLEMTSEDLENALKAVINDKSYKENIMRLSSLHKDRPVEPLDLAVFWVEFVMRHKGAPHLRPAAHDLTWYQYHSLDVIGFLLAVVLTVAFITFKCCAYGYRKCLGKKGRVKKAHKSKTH

[7] = biological target: T1, CYP3A4; remark: listed apart in the source
[8] = biological target: T3, UGT1A1 (Homo sapiens, UniProt P22309)
T3 sequence (P22309 26-533): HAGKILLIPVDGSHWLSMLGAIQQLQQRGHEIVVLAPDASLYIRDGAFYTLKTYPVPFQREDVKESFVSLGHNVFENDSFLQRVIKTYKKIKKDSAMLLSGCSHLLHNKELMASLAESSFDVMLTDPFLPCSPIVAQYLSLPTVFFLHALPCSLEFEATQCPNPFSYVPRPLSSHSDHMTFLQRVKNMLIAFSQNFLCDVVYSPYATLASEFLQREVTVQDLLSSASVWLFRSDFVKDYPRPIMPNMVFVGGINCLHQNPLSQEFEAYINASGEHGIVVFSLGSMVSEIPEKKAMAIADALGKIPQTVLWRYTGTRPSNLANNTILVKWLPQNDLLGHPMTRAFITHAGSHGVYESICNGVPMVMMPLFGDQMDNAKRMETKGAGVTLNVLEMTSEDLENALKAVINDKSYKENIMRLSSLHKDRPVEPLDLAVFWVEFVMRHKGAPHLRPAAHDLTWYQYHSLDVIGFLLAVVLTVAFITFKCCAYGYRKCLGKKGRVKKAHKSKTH

[9] = biological target: P-gp (Homo sapiens, UniProt P08183); details: in vitro
P-gp, sequence (P08183 whole entry): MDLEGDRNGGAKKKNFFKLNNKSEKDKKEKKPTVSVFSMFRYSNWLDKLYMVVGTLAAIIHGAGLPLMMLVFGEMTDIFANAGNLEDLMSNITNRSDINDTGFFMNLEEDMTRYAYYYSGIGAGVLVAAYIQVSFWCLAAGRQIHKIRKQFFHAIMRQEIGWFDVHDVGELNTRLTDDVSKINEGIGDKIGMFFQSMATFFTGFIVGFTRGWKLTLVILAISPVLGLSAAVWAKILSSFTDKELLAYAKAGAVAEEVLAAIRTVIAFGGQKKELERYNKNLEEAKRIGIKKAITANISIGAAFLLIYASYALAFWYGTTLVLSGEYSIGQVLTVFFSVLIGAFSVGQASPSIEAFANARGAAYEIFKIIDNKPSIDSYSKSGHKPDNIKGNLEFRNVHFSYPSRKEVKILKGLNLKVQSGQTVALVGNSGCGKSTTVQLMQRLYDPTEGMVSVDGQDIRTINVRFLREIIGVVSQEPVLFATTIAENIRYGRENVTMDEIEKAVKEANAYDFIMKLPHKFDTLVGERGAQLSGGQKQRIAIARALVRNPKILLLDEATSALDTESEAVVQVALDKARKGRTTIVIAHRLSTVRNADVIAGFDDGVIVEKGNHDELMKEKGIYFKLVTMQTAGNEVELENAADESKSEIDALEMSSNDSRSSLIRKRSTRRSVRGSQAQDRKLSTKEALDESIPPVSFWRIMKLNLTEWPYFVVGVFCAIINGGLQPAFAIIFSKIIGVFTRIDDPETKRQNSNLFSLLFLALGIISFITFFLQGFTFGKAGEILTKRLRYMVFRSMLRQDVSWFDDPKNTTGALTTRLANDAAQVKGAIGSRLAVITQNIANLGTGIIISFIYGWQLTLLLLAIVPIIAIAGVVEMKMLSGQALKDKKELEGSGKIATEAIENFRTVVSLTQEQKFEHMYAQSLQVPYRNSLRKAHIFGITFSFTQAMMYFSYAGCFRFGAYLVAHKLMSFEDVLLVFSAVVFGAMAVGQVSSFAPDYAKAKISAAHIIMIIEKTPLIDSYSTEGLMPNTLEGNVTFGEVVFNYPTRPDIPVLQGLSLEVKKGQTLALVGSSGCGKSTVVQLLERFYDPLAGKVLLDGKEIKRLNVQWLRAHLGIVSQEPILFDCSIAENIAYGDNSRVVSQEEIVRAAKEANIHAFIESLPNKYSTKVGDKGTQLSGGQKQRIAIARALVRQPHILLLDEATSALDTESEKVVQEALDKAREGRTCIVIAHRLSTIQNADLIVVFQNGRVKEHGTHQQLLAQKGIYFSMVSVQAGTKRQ

[10] = biological target: T4, BCRP (Homo sapiens, UniProt Q9UNQ0); details: in vitro
T4 sequence (Q9UNQ0 1-655): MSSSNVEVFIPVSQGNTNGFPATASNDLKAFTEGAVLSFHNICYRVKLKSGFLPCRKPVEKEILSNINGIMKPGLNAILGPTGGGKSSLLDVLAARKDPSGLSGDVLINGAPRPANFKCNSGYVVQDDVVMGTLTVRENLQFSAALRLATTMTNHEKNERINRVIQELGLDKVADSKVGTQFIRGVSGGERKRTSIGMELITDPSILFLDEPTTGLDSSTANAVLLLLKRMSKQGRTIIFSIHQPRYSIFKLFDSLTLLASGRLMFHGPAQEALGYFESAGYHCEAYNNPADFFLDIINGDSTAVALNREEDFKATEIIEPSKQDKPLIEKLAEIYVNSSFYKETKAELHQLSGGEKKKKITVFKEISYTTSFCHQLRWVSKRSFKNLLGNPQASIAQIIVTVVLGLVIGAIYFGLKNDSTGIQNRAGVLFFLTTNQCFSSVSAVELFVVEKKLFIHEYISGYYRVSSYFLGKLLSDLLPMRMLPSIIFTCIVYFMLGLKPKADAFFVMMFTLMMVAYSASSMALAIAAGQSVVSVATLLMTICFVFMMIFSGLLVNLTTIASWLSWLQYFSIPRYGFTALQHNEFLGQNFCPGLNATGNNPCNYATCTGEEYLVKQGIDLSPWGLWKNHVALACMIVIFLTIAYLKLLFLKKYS

[11] = biological target: T5, UGT1A9 (Homo sapiens, UniProt O60656); details: in vitro
T5 sequence (O60656 26-530): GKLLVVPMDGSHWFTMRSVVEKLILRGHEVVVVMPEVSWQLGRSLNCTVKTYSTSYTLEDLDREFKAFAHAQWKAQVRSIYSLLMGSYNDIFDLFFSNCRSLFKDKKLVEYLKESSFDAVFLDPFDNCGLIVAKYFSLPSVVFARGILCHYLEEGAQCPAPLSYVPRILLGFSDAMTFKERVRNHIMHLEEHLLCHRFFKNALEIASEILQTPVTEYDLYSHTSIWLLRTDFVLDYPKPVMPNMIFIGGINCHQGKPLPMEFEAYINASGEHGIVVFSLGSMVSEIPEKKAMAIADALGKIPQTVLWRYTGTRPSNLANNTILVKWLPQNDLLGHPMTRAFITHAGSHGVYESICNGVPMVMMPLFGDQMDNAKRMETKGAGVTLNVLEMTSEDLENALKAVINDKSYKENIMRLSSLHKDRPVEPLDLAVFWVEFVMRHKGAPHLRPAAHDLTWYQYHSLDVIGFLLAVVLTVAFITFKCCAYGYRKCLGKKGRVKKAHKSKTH

SMILES: CC(C)OC(=O)[C@H](C)N[P@](=O)(CO[C@H](C)Cn1cnc2c(N)ncnc21)Oc1ccccc1 [TAF, L-alanine, N-[(S)-[[(1R)-2-(6-amino-9H-purin-9-yl)-1methylethoxy]methyl]phenoxyphosphinyl]-, 1-methylethyl ester, (2E)-2-butenedioate (2:1)]
- pEC50 ([1]; read-out: mean EC50): 8.01
- pEC50 ([1]; read-out: median EC50): 7.99
- pEC50 ([2]; read-out: mean EC50): 7.96
- pEC50 ([2]; read-out: median EC50): 7.99

SMILES: Nc1nc(=O)n([C@@H]2CS[C@H](CO)O2)cc1F [Emtricitabine, 5-fluoro-1-(2R,5S)-[2-(hydroxymethyl)-1,3oxathiolan-5-yl]cytosine]
- EC50 value against HIV-1 [3]: 3 to 158 ng/mL
- pEC50 ([3]; read-out: EC50 value against HIV-1): 6.19 to 8.89

- extent to which the drug is a substrate of CYP3A4 [4]: about 15%
- induction or inhibition of cytochrome P450 (CYP) isozymes [5]: demonstrates induction or inhibition
SMILES: C[C@@H]1CCO[C@H]2Cn3cc(C(=O)NCc4ccc(F)cc4F)c(=O)c(O)c3C(=O)N12 [Dolutegravir, (4R,12a5)-N-[(2,4-difluorophenyl)methyl]-7-hydroxy-4-methyl-6,8-dioxo-3 ,4,12,12a-tetrahydro-2H-pyrido[5, 6]pyrazino[2,6-b][1,3]oxazine-9-carboxamide]

- substrate of UGT1A3 [6]: substrate
- metabolic clearance through CYP3A4 [7]: metabolically cleared
- metabolic clearance through UGT1A1 [8]: metabolically cleared
- substrate of P-gp [9]: substrate
- substrate of BCRP [10]: substrate
- substrate of UGT1A9 [11]: substrate
SMILES: O=C(NCc1c(F)cc(F)cc1F)c1cn2c(c(O)c1=O)C(=O)N1[C@H]3CC[C@H](C3)O[C@@H]1C2 [Bictegravir, (2R,5S,13aR)-8-hidroxi-7,9-dioxo-N-[(2,4,6-trifluorofenil)metil]-2,3,4,5,7,9,13,13a-octahidro-2,5-metanopirido[1′,2′: 4,5]pirazino[2,1-b][1,3]oxazepina-10-carboxamida]
